One assay concerns the target T1, p75-Fc (Homo sapiens, UniProt P08138).
T1 construct: purchased R&D
T1 sequence (P08138 29-250 limits assumed): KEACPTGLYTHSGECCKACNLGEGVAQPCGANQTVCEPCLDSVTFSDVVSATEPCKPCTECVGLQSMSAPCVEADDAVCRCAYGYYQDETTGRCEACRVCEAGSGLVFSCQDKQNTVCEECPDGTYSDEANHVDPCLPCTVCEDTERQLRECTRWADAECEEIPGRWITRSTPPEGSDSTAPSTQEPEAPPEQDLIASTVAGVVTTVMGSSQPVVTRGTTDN
Briefly: Competitive ELISA, p75-Fc binding to immobilized NGF. The settings on record: competitive ELISA, FIG. 1A, compound at 30 μM. Here is the method:
(§1) The effect of compounds I-B and LM-24 on the binding between NGF and p75 was tested in competitive ELISA assays, where the antagonists prevent soluble p75 from binding to immobilized NGF. The selectivity of antagonism was evaluated by lack of effect upon NGF-TrkA or lack of effect between NGF and anti-NGF monoclonal antibody (mAb) NGF30 interactions (FIG. 1A).
The compound LM-24 has been reported by others (Massa et al., 2006). Binding studies were carried out with all the compounds using I-B as reference.
(§2) Competitive ELISAs were performed as described (Saragovi et al., 1998). The procedure immobilized 50 ng/well NGF, or pro-NGF (Alomone Labs, Israel) onto polystyrene 96-well microtest plates, with washing and blocking with binding buffer (BB; phosphate buffered saline containing 0.5% bovine serum albumin). The following primary reagents in BB were added: recombinant chimeric p75-Fc or recombinant chimeric TrkA-Fc (R&D), or anti-NGF mAb NGF30 (Saragovi et al., 1998); each at 50 nM. The competitors I-B and the other test compounds (or control LM-24) were added at the indicated concentrations, and the plates were incubated for 45 minutes. After washing 3× in BB, HRP-conjugated secondary reagents (Sigma) were added for 30 min (goat anti-human Fc for p75-Fc and for TrkA-Fc; and goat anti-rat Ab for NGF30 mAb), and then wells were washed 3× in BB and 1× in PBS. Peroxidase activity was determined colorimetrically using the substrate TMB One Solution (Promega). The reaction was stopped with 0.5 N H2SO4 and the plates were read at 450 nm (Benchmark Plus, Bio-Rad). Assays were repeated n>4 times, with replicates of 4 wells each assay. […] Wells with no NGF immobilized but with all other reagents added were treated as background (<15% of maximal signals) and standardized to 0% binding.

The next assay concerns the target T2, TrkA-Fc (Homo sapiens, UniProt P04629).
T2 construct: purchased R&D
The assay can be described thus: Competitive ELISA, TrkA-Fc binding to immobilized NGF (selectivity control). The settings on record: competitive ELISA, FIG. 1A, compound at 30 μM. Here is the method:
as §1, §2
A general note: ELISA stands for enzyme-linked immunosorbent assay.

Assay [1] relates to retinal ganglion cells (RGCs). The assay can be described thus: Glaucoma (episcleral vein cauterization) model, quantification of surviving RGCs. It counts as in vivo. The settings on record: rat glaucoma, intravitreal injections days 14 and 21, endpoint day 42 (FIG. 2D). Here is the method:
(§3) Wistar rats (female, 250-300 g; Charles River) were kept in a 12 hours dark-light cycle with food and water ad libitum. All animal manipulations were performed between 9 AM and 12 AM. Deep anesthesia was used during cauterization (induction of glaucoma), ON transection, fluorogold labeling, intraocular injection procedures, Optical Coherence Tomography measurements, and euthanasia (ketamine, xylazine, acepromazine injected intraperitoneally: 50/5/1 mg/kg, as per IACUC recommendations). For measuring IOP, light anesthesia was used (a gas mixture of Oxygen, 2% isofluorane mixture, at a rate of 2.5 liter/min, as per IACUC recommendations).
The episcleral vein cauterization (EVC) model of rat (Shi et al., 2007; Shi et al., 2008) was used. […]
(§4) For studies in the glaucoma animal model the injections were performed at days 14 and 21 after cauterization. […] Thus, in this paradigm there is pre-existing damage for 14 days before treatment (measured at ˜8% RGC death (Shi et al., 2007; Shi et al., 2008)); and the treatments require long-lived efficacy in the constant presence of retinal stress due to high IOP. […]
(§5) Quantification of labeled RGCs was performed as reported (Shi et al., 2007; Shi et al., 2008). […] Pictures for each freshly flat-mounted retina were taken using a Zeiss fluorescence microscope (Carl Zeiss Meditec, Jena, Germany), with 12 pictures/retina at 20× magnification. […]

Assay [2] relates to retinal ganglion cells (RGCs). Briefly: ON axotomy model, quantification of surviving RGCs (fluorogold labeled). Format: in vivo. The settings on record: rat ON axotomy, one intravitreal injection 3 μg, day 14; contralateral normal eye = 100%; control axotomy 10%. Here is the method: as §3
The ON axotomy model in the rat (Bai et al., 2010a) was used. […]
as §4, §5

Assay [3] has as its system NGI (NFL-GCL-IPL) retinal layers. Briefly: ON axotomy model, retinal NGI thickness by FD-OCT. It counts as in vivo. Particulars: rat ON axotomy, 3 μg intravitreal immediately after axotomy, days 11 and 14, versus untreated axotomy. Here is the method:
Antagonists of p75NTR prevented loss of retinal structure after ON axotomy. The relative in vivo efficacy for I-B and LM-24 was tested using the ON axotomy model. A quantitative non-invasive structural endpoint, FD-OCT, was performed in the same animal over time to measure the integrity of the neuronal layers. We quantified the axons and fibers of the RGCs that contribute to the thickness of the Nerve Fiber Layer (NFL), the Ganglion Cell Layer (GCL), and the Inner Plexiform Layer (IPL), herein termed NGI. Maintenance of NGI structure correlates with RGC health (Bai et al., 2010a).
Wistar rats (female, 250-300 g; Charles River) were kept in a 12 hours dark-light cycle with food and water ad libitum. All animal manipulations were performed between 9 AM and 12 AM. […]
FD-OCT is a non-invasive method that allows time-kinetic studies in the same animal. […] In each B-scan the thickness of the NFL-GCL-IPL (NGI) was measured at four adjacent points at a distance 1.5 mm from the ON head. […]
as §4

The next assay relates to anti-NGF mAb NGF30. The assay can be described thus: Competitive ELISA, anti-NGF mAb NGF30 binding to immobilized NGF (selectivity control). Particulars: competitive ELISA, FIG. 1A, compound at 30 μM. Here is the method: as §1, §2

T2 sequence (P04629 33-423 limits assumed): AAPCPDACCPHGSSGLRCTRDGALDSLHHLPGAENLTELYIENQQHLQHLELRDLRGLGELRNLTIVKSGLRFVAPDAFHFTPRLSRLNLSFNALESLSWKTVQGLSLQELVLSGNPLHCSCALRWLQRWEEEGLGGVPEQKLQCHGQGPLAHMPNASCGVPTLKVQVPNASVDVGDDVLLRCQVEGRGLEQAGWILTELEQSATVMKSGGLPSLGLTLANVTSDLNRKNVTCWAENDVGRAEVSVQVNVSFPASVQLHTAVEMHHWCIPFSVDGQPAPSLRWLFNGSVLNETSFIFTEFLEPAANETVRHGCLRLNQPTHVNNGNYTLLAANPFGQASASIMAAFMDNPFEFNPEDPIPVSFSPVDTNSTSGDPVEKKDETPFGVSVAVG

Regarding `CN(C)CCCNC(=O)Cn1cnc2c1c(=O)n(C)c(=O)n2C` [LM-24, reference compound], at p75-Fc, the “effect on NGF-p75NTR interaction” value is listed as “antagonized NGF-p75NTR interactions selectively”. In addition, the “effect on binding of TrkA to NGF” value on TrkA-Fc is “did not interfere”. Besides, in assay [1], the “prevention of RGC death” value is “significantly prevent the death of RGCs”. The RGCs surviving in assay [2] worked out at 21%. For the same compound, the “preservation of NGI thickness (FD-OCT)” value in assay [3] is listed as “very limited preservation of the NGI thickness”. In the assay on anti-NGF mAb NGF30, the “effect on mAb NGF30 binding to NGF” value is “did not interfere”.
